Here are results for 13 compounds from patent US5066666A, “Aminoazole derivatives and their production and use” (Sumitomo Pharmaceuticals Company, Limited, priority 1986, dated 1991).

In data set [1] the test system is adjuvant arthritis. The experiment in a line: Rat-Adjuvant Arthritis Test. The format is in vivo, male Sprague-Dawley rats. As to conditions: for effect in rat adjuvant arthritis test, in words: in vivo; for minimal effective dose: Rattus norvegicus, po, orally once a day for 5 days (day 15 to 19), lowest dose with significant reduction (p<0.001) of foot volume, read-out: Minimum Effective Dose Adjuvant Arthritis. The text has this: Rat adjuvant arthritis test is one of a few and most useful pharmacological model for the investigation of human […] inflammation. It is known that the effective compounds to this model system are useful for treatment of rheumatoid arthritis, such as steroids or non-steroidal anti-inflammatory drugs (Oyo Yakuri, 5, 169 (1971).
According to the method of Winter et al., Arth. Rheum., 9, 394 (1966), male Sprague-Dawley rats, 6 weeks of age, were given subplantar injection of the adjuvant consisting of 1 mg of killed Mycobacterium butyricum (Difco) and 0.2 ml of liquid paraffin. Fourteen days after, the rats with established arthritis were treated by the drug as follows: the test compound was suspended in 5% gum arabic solution and orally given once a day for 5 days, day 15 to day 19. Control rats were given gum arabic in the same way. On day 19, the volume of right foot was determined with a plethusometer. The lowest dose which gave significant reduction (p<0.001)of the foot volume from that of the control group was regarded as a minimum effective dose (MED).

The subject of data set [2] is Arthus reaction. The experiment in a line: Mice-Arthus Test. The class given is in vivo, male BABL/c mice. As to conditions: for minimal effective dose: Mus musculus, 3 h, orally 24 hr and 1 hr before the challenge, read-out: Minimum Effective Dose Arthus. How it is done: The activity of effect for rheumatoid arthritis may be estimated by effect for Arthus reaction. […] Two weeks later, mice were boosted by the i.v. injection of 8×10^7 SRBC and 5 day later the animals were challenged by the subcutaneous injection of 1×10^8 SRBC in 25 μl of PBS into the right hind footpad. The thickness of the SRBC-injection right hind paw and contralateral left hind paw were measured with micrometer 3 hr after the challenge. The difference between these two measurements is regarded as the oedema due to the Arthus reaction. Percentage inhibition of the reaction was determined by comparison with the positive control group. The test compounds were administered orally 24 hr and 1 hr before the challenge.

For data set [3], the system named is adjuvant arthritis. As to conditions: background statement; cited from earlier work.
Data set [4] deals with Arthus reaction. As to conditions: background statement; cited from earlier work.
For data set [5], the target named is T1, 5-lipoxygenase (Cavia porcellus, UniProt A0A286X958).
T1 construct: polymorphonuclear leukocytes (PMNs) from Hartley guinea pigs; endogenous in cells; host or cells: casein-elicited peritoneal polymorphonuclear leukocytes of Hartley guinea pigs (intact cells)
T1 sequence (A0A286X958 1-674): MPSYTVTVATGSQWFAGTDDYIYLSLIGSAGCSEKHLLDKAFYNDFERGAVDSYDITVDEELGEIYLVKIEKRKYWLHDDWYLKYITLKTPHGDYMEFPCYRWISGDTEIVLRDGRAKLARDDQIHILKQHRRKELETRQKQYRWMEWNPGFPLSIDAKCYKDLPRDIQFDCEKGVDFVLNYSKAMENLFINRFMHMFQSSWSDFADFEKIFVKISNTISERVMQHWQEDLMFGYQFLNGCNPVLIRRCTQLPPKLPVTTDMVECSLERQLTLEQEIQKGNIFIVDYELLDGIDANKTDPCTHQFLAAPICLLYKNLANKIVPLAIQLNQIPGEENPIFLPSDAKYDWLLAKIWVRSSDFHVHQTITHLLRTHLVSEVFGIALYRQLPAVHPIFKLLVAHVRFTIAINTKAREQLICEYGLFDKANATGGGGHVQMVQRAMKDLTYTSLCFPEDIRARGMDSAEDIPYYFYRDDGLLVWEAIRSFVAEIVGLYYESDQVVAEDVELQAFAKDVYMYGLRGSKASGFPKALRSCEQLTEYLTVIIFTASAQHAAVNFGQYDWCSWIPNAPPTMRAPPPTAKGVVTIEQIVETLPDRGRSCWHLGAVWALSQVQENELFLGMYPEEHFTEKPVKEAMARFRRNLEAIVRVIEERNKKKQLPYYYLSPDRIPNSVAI
Description: 5-Lypoxygenase Inhibitory Test. The format is cell-based, Hartley guinea pigs. As to conditions: PMNs from guinea pigs, A23187 stimulated, [14C] arachidonic acid; Inhibition (%) classes. Here is the method:
According to the method of Harvey et al., J. Pharmacol. Meth., 9, 147-155 (1983), polymorphonuclear leukocytes (PMNs) from Hartley guinea pigs weighting 280 to 350 g were elicited by intraperit oneal injection of 2% casein suspension (10 ml/100 g guiner pig weight), and collected 16-18 hrs later. The cells were washed with saline and finally suspended at 2.39×10^7 cells/ml in Krebs Ringer Bicarbonate buffer (KBR) pH 7.4.
935 μl of PMNs were aliquoted into 15 ml glass tubes and prewarmed to 37° C. in a shaking water bath. Drugs (10 μl of dimethylsulfoxide (DMSO)) were added 10 minutes prior to the addition of 1-^14 C-arachidonic acid (New England Neuclear Co.; 50 μl of 2 μCi/mlKBR) and calciumionophor, A23187 (Calbiochem Boehring Co.; 5 μl of 1 mg/mlDMSO). The reaction was terminated after a further 10 min by the addition of 0.2M citric acid (100 μl). Unstimulated controls were also included to determine the increased metabolism of arachidonic acid due to A23187. Samples were diluted with water (4 ml) and extracted twice with ethyl acetate (5 ml). The ethyl acetate was concentrated under a stream of nitrogen and two-thirds of the residue was applied to TLC plates. The plates were developed in toluene:dioxane:acetic acid=65:34:1.5at 10° C.
Radiochromatographic analysis of the labelled metabolites of [^14 C] arachidonic acid utilized a Berthold LB283 TLC Linear Analyzer. In samples and controls, a ratio of radioactivity of 5-HETE in metabolites to all of metabolites of [^14 C] arachidonic acid was calculated, and results were determined as percent inhibition calculated from those retios.

The conditions of data set [6]: background statement, clinical use, cited from earlier work.

Where two headings read alike, the source gives them in different places.

Take `CC(C)(S)[C@@H](N)C(=O)O` [D-Penicillamine]: the “Adjuvant Arthritis (result in words)” value in data set [1] (at 200 mg/kg) is listed as “non-effective”. Moreover, the “effect in rat adjuvant arthritis test, in words” value in data set [1] is “non-effective”. Further, the “effect in mice Arthus reaction test, in words” value in data set [2] (mouse, in vivo) is “non-effective”. Further, the “effect in adjuvant arthritis test, in words” value in data set [3] is reported as “non-effective”. For the same compound, the “effect in Arthus reaction, in words” value in data set [4] is reported as “non-effective”.
Take `CNc1nc(C(C)c2ccc(-c3ccccc3)c(F)c2)cs1` (stereo not drawn) [Example 2, 4-[1-(2-fluoro-4-biphenylyl)ethyl]-2-methylaminothiazole]: the minimal effective dose was 25 mg/kg in data set [1] and 10 mg/kg in data set [2].
Taken in the same sequence, the figures for `CC(c1ccc(-c2ccccc2)c(F)c1)c1coc(N)n1` (stereo not drawn) [Example 7, 2-Amino-4-(1-(2-fluoro-4-biphenylyl)ethyl)oxazole] were 10 mg/kg and 10 mg/kg.
Taken in the same sequence, the figures for `CC(c1cccc(C(=O)c2ccccc2)c1)c1nc(N(C)C)no1` (stereo not drawn) [Example 11, 3-dimethylamino-5-(1-(3-benzoylphenyl)ethyl)-1,2,4-oxadiazole] were 2.5 mg/kg and 10 mg/kg.
As to `CC(c1ccc(-c2ccccc2)c(F)c1)c1nc(N)no1` (stereo not drawn) [Example 21, 3-amino-5-(1-(2-fluoro-4-biphenylyl)ethyl)-1,2,4-oxadiazole], the minimal effective dose in data set [1] came out at 2.5 mg/kg; in data set [2], 10 mg/kg. The “Activity of Inhibition (5-lipoxygenase)” value in data set [5] was “++ (40-70%)”.
Consider `CC(c1cccc(C(=O)c2ccccc2)c1)c1nc(N)no1` (stereo not drawn) [Example 22], for which the minimal effective dose stood at 2.5 mg/kg in data set [1] and 50 mg/kg in data set [2]. Also, the “Activity of Inhibition (5-lipoxygenase)” value in data set [5] is recorded as “+++ (70%<)”.
Regarding `CC(c1ccc(-c2ccccc2)c(F)c1)c1csc(N(C)C)n1` (stereo not drawn) [Example 48, 4-(1-(2-fluoro-4-biphenylyl)ethyl)-2-dimethylaminothiazole], the minimal effective dose stood at 10 mg/kg in data set [1] and 50 mg/kg in data set [2].
For the compound `CC(c1cccc(C(=NO)c2ccccc2)c1)c1nc(N)no1` (stereo not drawn) [Example 65], in data set [5], the “Activity of Inhibition (5-lipoxygenase)” value was “+++ (70%<)”.
On to `CN(C)c1noc(Cc2cccc(C(=NO)c3ccccc3)c2)n1` [Example 67], for which the minimal effective dose in data set [1] worked out at 10 mg/kg; in data set [2], 50 mg/kg. In addition, the “Activity of Inhibition (5-lipoxygenase)” value in data set [5] was “+++ (70%<)”.
Consider `CC(c1cccc(C(=O)c2ccccc2)c1)c1cc(N)on1` (stereo not drawn) [Example 74], for which the minimal effective dose worked out at 2.5 mg/kg in data set [1] and 50 mg/kg in data set [2].
In the case of `c1ccc(CCNc2nc(-c3ccccc3)cs2)cc1` [fanetizole, 2-phenethylamino-4-phenylthiazole], the “effect in adjuvant arthritis test, in words” value in data set [3] is on record as “non-effective”. Also, in data set [4], the “effect in Arthus reaction, in words” value was “effective”.
In the case of `c1ccc([C@H]2CN3CCSC3=N2)cc1` [levamizole], the “Adjuvant Arthritis (result in words)” value in data set [1] (at 50 mg/kg) was “non-effective”. Besides, the “effect in rat adjuvant arthritis test, in words” value in data set [1] is “non-effective”. Besides, the minimal effective dose in data set [2] was 50 mg/kg. In data set [3], the “effect in adjuvant arthritis test, in words” value is on record as “non-effective”. Moreover, the “effect in Arthus reaction, in words” value in data set [4] was “effective”. The side effects result in data set [6] was “serious side effects”; in data set [6] (listed as Levamizole), “many severe side-effects”.
In the case of `O=C(Nc1nc(-c2ccccc2)cs1)OCC(Cl)(Cl)Cl` [lotifazole, 4-phenyl-2-(2',2',2'-trichloroethoxycarboxamido)thiazole], in data set [3], the “effect in adjuvant arthritis test, in words” value is listed as “non-effective”. Also, the “effect in Arthus reaction, in words” value in data set [4] is on record as “effective”.
